# Assay results reported in US11225469B2, “Inhibitors of phosphoglycerate dehydrogenase (PHGDH) and uses thereof” (Whitehead Institute for Biomedical Research, priority 2015, dated 2022).
# pIC50: −log10 of the molar value.
# Biological target: PHGDH (Homo sapiens (Human), UniProt O43175)
# Experiment: PHGDH inhibition, coupled assay with PSAT1/PSPH and diaphorase/resazurin readout
# Assay type: biochemical
# Conditions: Table E9; mixture with PSAT1, PSPH; diaphorase/resazurin reporter
# Method: Compounds of the invention were assayed for inhibition of the activity phosphoglycerate dehydrogenase (PHGDH). The compounds were assayed in a mixture comprising PHGDH, PSAT1, PSPH, NADH, and glutamate. Diaphorase and resazurin were used as a fluorescent reporter system.
# In this endogenous pathway coupled assay, the production of NADH by PHGDH was measured through the diaphorasemediated reduction of resazurin (See, e.g., Chakraborty, S., Sakka, M., Kimura, T. & Sakka, K. “Characterization of a dihydrolipoyl dehydrogenase having diaphorase activity of Clostridium kluyveri.” BioscL Biotechnol. Biochem. 72, 982-988 (2008)).
# PHGDH assay buffer contained 50 mM TEA pH 8.0, 10 mM MgCl2, 0.05% BSA, and 0.01% Tween-20. PHGDH enzyme buffer consisted of assay buffer with 20 nM PHGDH and 0.2 mg/mL diaphorase. PHGDH substrate buffer contained 0.3 mM NAD 1.25 mM glutamate, 0.1 mM 3-phosphoglycerate, 0.2 mM resazurin, 1 μM PSAT1, and 1 μM PSPH. qHTS was performed in 1536-well plates dispensed with a BioRAPTR FRD. Each well contained equal volumes of substrate buffer and assay buffer. Plates were read at 0 minutes and 20 minutes at room temperature with a ViewLux uHTS Microplate Imager (PerkinElmer). Follow-up assays were performed in black 384-well plates (Greiner) in 20 μL of enzyme buffer to which compounds were added in dose-response with an HP D300 digital dispenser (Hewlett-Packard), followed by addition of 20 μL of substrate buffer. Plates were incubated at room temperature (25° C.) and read at 0 and 20 minutes with a Spectramax M5 plate reader (Molecular Devices) in fluorescence intensity mode with a λex=550 nm and λem=600 nm (emission cutoff=590 nm).
# Sequence of PHGDH (O43175 whole entry): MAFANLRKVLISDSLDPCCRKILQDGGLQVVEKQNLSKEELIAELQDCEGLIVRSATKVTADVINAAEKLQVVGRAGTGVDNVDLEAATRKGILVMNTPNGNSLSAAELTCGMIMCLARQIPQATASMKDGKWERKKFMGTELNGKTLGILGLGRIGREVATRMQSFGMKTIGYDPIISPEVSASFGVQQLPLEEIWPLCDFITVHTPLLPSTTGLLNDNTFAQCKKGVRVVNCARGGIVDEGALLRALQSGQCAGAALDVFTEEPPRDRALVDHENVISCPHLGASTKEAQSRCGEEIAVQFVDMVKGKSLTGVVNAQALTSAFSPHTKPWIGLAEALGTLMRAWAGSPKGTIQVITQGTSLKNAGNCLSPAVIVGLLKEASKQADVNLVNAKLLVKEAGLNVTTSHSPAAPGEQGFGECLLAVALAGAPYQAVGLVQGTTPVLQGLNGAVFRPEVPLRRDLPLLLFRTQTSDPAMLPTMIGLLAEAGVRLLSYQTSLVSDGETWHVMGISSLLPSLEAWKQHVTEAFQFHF
row,Structure (SMILES),pIC50
1,Cc1cc(C)nc(NC(=S)N2CCN(c3cccc(C(=O)O)c3)CC2)c1 [Compound 102],≤ 4.70
2,Cc1cc(C)nc(NC(=S)N2CCN(c3ccc(N4CCCC4)nn3)CC2)c1 [Compound 84],≤ 4.70
3,Cc1cncc(NC(=S)N2CCN(c3cccc(C(F)(F)F)c3)CC2)c1 [Compound 29],5.00 to 5.30
4,Cc1cc(C)nc(NC(=S)N2CCN(c3ccc(F)cc3F)CC2)c1 [Compound 90],5.00 to 5.30
5,FC(F)(F)c1cccc(N2CCN(C(=S)Nc3ccncc3)CC2)c1 [Compound 31],4.70 to 5.00
6,Cc1cc(C)nc(NC(=S)N2CCN(c3cccc([S+](C)[O-])c3)CC2)c1 (centres unmarked) [Compound 139],≤ 4.70
7,Cc1cc(C)nc(NC(=S)N2CCN(c3cc(C(F)(F)F)cc(C(F)(F)F)c3)CC2)c1 [Compound 64],5.00 to 5.30
8,COc1ccnc(NC(=S)N2CCN(c3cccc(C(F)(F)F)c3)CC2)c1 [Compound 36],> 5.30
9,Cc1cccc(NC(=S)N2CCN(c3cccc(C(F)(F)F)c3)CC2)c1 [Compound 23],≤ 4.70
10,Cc1cc(C)nc(NC(=S)N2CCN(c3nccc4ccccc34)CC2)c1 [Compound 132],4.70 to 5.00
11,Cc1ccnc(NC(=S)N2CCN(c3cccc(C(F)(F)F)c3)C2)c1 [Compound 44],≤ 4.70
12,COc1ccc(NC(=S)N2CCN(c3cccc(C(F)(F)F)c3)CC2)nc1 [Compound 37],≤ 4.70
13,Cc1cc(C)nc(NC(=S)N2CCN(Cc3ccc(Cl)cc3)CC2)c1 [Compound 280],4.70 to 5.00
14,COc1cc(N2CCN(C(=S)Nc3cc(C)cc(C)n3)CC2)cc(C(F)(F)F)c1 [Compound 136],4.70 to 5.00
15,Cc1cc(C)nc(NC(=S)N2CCN(c3ccc(C(=O)O)cc3)CC2)c1 [Compound 101],≤ 4.70
16,Cc1ccnc(NC(=S)N2CCCN(c3cccc(C(F)(F)F)c3)CC2)c1 [Compound 49],4.70 to 5.00
17,Cc1ccnc(NC(=S)N2CC3CN(c4cccc(C(F)(F)F)c4)CC3C2)c1 (centres unmarked) [Compound 45],4.70 to 5.00
18,Cc1ccnc(NC(=S)N2CC[C@@H](Nc3cccc(C(F)(F)F)c3)C2)c1 [Compound 55],≤ 4.70
19,Cc1cc(C)nc(NC(=S)N2CCN(c3ccccn3)CC2)c1 [Compound 77],≤ 4.70
20,Cc1cc(C)nc(NC(=S)N2CCN(c3ncccc3C(F)(F)F)CC2)c1 [Compound 113],4.70 to 5.00
21,Cc1cc(C)nc(NC(=S)N2CCN(c3cc(Br)cc(C(F)(F)F)c3)CC2)c1 [Compound 142],5.00 to 5.30

row,Structure (SMILES),pIC50
1,Cc1cccc(N2CCN(C(=S)Nc3cc(C)ccn3)CC2)c1 [Compound 39],4.70 to 5.00
2,Cc1cc(C)nc(NC(=S)N2CCN(c3ncccn3)CC2)c1 [Compound 80],≤ 4.70
3,Cc1cc(C)nc(NC(=S)N2CCN(c3cnccn3)CC2)c1 [Compound 118],≤ 4.70
4,Cc1ccnc(NC(=S)N2CCN(c3cccc(N(C)C)c3)CC2)c1 [Compound 6],4.70 to 5.00
5,Cc1ccnc(NC(=S)N2CCCC(Nc3cccc(C(F)(F)F)c3)C2)c1 (centres unmarked) [Compound 58],5.00 to 5.30
6,CN(C)c1ccc2nc(NC(=S)N3CCN(c4cccc(C(F)(F)F)c4)CC3)sc2c1 [Compound 144],≤ 4.70
7,Cc1cc(C)nc(NC(=S)N2CCN(c3nncs3)CC2)c1 [Compound 131],≤ 4.70
8,Cc1cc(C)nc(NC(=S)N2CCN(c3ncccc3Cl)CC2)c1 [Compound 79],4.70 to 5.00
9,Cc1cc(C)nc(NC(=S)N2CCN(c3ncc(C(F)(F)F)cc3Cl)CC2)c1 [Compound 111],5.00 to 5.30
10,Cc1ccnc(NC(=S)N2CCN(c3ccccc3C(F)(F)F)CC2)c1 [Compound 41],5.00 to 5.30
11,FC(F)(F)c1cccc(N2CCN(C(=S)Nc3ccc4ccccc4n3)CC2)c1 [Compound 34],4.70 to 5.00
12,FC(F)(F)c1cccc(N2CCN(C(=S)Nc3cccnc3)CC2)c1 [Compound 30],> 5.30
13,Cc1cc(C)nc(NC(=S)N2CCN(c3ccc(-c4ccccc4)cc3)CC2)c1 [Compound 133],≤ 4.70
14,Cc1ccnc(NC(=S)N2CCN(c3ccc(Br)cc3)CC2)c1 [Compound 9],≤ 4.70
15,Cc1cc(C)nc(NC(=S)N2CCN(c3cccc4ccccc34)CC2)c1 [Compound 69],5.00 to 5.30
16,FC(F)(F)c1cccc(N2CCN(C(=S)Nc3nccc4ccccc34)CC2)c1 [Compound 32],5.00 to 5.30
17,Cc1cc(C)nc(NC(=S)N2CCN(c3cccc(OC(F)F)c3)CC2)c1 [Compound 135],> 5.30
18,Cc1cc(NC(=S)N2CCN(c3cccc(C(F)(F)F)c3)CC2)nc2ccccc12 [Compound 127],≤ 4.70
19,Cc1ccnc(NC(=O)N2CCN(c3cccc(C(F)(F)F)c3)CC2)c1 [Compound 3],≤ 4.70
20,Cc1ccnc(NC(=S)N2CCN(c3ccc(O)cc3)CC2)c1 [Compound 13],≤ 4.70
21,Cc1ccnc(NC(=S)N2CCN(c3ccc(C#N)cc3)CC2)c1 [Compound 10],≤ 4.70

# More lines, now with the values ahead:
row,pIC50,Structure (SMILES)
1,5.00 to 5.30,Cc1cc(C)nc(NC(=S)N2CCN(c3ccc(C(F)(F)F)cc3Cl)CC2)c1 [Compound 212]
2,≤ 4.70,COc1ccccc1N[S+](=O)([O-])c1cc(NC(=O)Cc2ccc(Cl)cc2Cl)ccc1N1CCCC1 [Compound 248]
3,> 5.30,COc1ccnc(NC(=S)N2CCN(c3cc(C(F)(F)F)cc(C(F)(F)F)c3)CC2)c1 [Compound 179]
4,> 5.30,COc1cccc(NC(=S)N2CCN(c3ccccc3C(F)(F)F)CC2)n1 [Compound 193]
5,> 5.30,COc1cccc(NC(=S)N2CCN(c3ccc(Cl)cc3Cl)CC2)n1 [Compound 190]
6,≤ 4.70,Cc1cc(C)nc(NC(=S)N2CCN(c3cc(Cl)c(Cl)c(Cl)c3)CC2)c1 [Compound 206]
7,≤ 4.70,Cc1cc(C)nc(NC(=S)N2CCN(Cc3cccnc3)CC2)c1 [Compound 283]
8,4.70 to 5.00,Cc1ccc2nc(NC(=S)N3CCN(c4cccc(C(F)(F)F)c4)CC3)[nH]c2c1 [Compound 239]
9,≤ 4.70,Cc1cc(C)nc(NC(=S)N2CCC(C(=O)N3CCCCC3)CC2)c1 [Compound 260]
10,5.00 to 5.30,Cc1ccnc(NC(=S)N2CCN(c3ccc(Cl)c(Cl)c3)CC2)c1 [Compound 173]
11,4.70 to 5.00,Cc1cc(C)nc(NC(=S)N2CCN(c3ccc4nsnc4c3)CC2)c1 [Compound 163]
12,5.00 to 5.30,Cc1ccnc(NC(=S)N2CCN(c3cc(C(F)(F)F)cc(C(F)(F)F)c3)CC2)c1 [Compound 170]
13,> 5.30,Cc1cc(C)nc(NC(=S)N2CCN(CC(C)(C)C)CC2)c1 [Compound 269]
14,> 5.30,Cc1cc2nc(NC(=S)N3CCN(c4cccc(C(F)(F)F)c4)CC3)[nH]c2cc1C [Compound 244]
15,4.70 to 5.00,COc1ccnc(NC(=S)N2CCN(c3ccc4ccccc4n3)CC2)c1 [Compound 186]
16,≤ 4.70,Cc1cc(C)nc(NC(=S)N2CCN(c3ccc(Cl)c(Cl)c3Cl)CC2)c1 [Compound 221]
17,> 5.30,Cc1ccnc(NC(=S)N2CCN(c3cccc(C(F)(F)F)n3)CC2)c1 [Compound 175]
18,4.70 to 5.00,COc1ccc(CN2CCN(C(=S)Nc3cc(C)cc(C)n3)CC2)cc1 [Compound 293]
19,5.00 to 5.30,Cc1ccnc(NC(=S)N2CCN(c3cccc(Cl)c3Cl)CC2)c1 [Compound 171]
20,5.00 to 5.30,Cc1cc(C)nc(NC(=S)N2CCN(Cc3ccc(C)c(C(F)(F)F)c3)CC2)c1 [Compound 302]
21,5.00 to 5.30,FC(F)(F)c1cccc(N2CCN(C(=S)Nc3nc4ccc(C(F)(F)F)cc4[nH]3)CC2)c1 [Compound 246]
22,> 5.30,Cc1cc(C)nc(NC(=S)N2CCCC(Nc3cccc(C(F)(F)F)c3)C2)c1 (centres unmarked) [Compound 251]

row,pIC50,Structure (SMILES)
1,≤ 4.70,Cc1cc(C)nc(NC(=S)N2CCN(c3ccc4nonc4c3)CC2)c1 [Compound 159]
2,≤ 4.70,O=C(Nc1cccc([S+](=O)([O-])Nc2ccccc2F)c1)c1cccs1 [Compound 245]
3,≤ 4.70,FC(F)(F)c1cccc(N2CCN(C(=S)Nc3nc[nH]n3)CC2)c1 [Compound 234]
4,> 5.30,"Cc1cc(C)nc(NC(=S)N2CCCC(NC(=O)c3cccc(C(F)(F)F)c3)C2)c1 (centres unmarked) [Compound 262, N-(1-((4,6-dimethylpyridin-2-yl)carbamothioyl)piperidin-3-yl)-3-(trifluoromethyl)benzamide]"
5,5.00 to 5.30,Cc1ccnc(NC(=S)N2CCN(c3cc(Cl)cc(Cl)c3)CC2)c1 [Compound 169]
6,5.00 to 5.30,COc1ccnc(NC(=S)N2CCN(c3cc(Cl)cc(Cl)c3)CC2)c1 [Compound 178]
7,4.70 to 5.00,S=C(Nc1cc(Cl)ccn1)N1CCN(c2ccc(Cl)c(Cl)c2)CC1 [Compound 200]
8,> 5.30,Cc1cc(C)nc(NC(=S)N2CCN(C(=O)c3ccc(C(F)(F)F)cc3)CC2)c1 [Compound 265]
9,≤ 4.70,FC(F)(F)c1cc(N2CCN(C(=S)Nc3cc(Cl)ccn3)CC2)cc(C(F)(F)F)c1 [Compound 198]
10,> 5.30,Cc1cccc(CN2CCN(C(=S)Nc3cc(C)cc(C)n3)CC2)c1 [Compound 291]
11,4.70 to 5.00,Cc1cc(C)cc(N2CCN(C(=S)Nc3cc(C)cc(C)n3)CC2)c1 [Compound 213]
12,≤ 4.70,S=C(Nc1cc(Cl)ccn1)N1CCN(c2cc(Cl)cc(Cl)c2)CC1 [Compound 197]
13,≤ 4.70,Cc1cc(C)nc(NC(=S)N2CCN(c3ccc(Cl)nn3)CC2)c1 [Compound 165]
14,≤ 4.70,Cc1cc(C)nc(NC(=S)N2CCN(c3ccc4nccn4c3)CC2)c1 [Compound 162]
15,4.70 to 5.00,Cc1cc(C)nc(NC(=S)N2CCN(c3cc(C(F)(F)F)nc(C)n3)CC2)c1 [Compound 153]
16,4.70 to 5.00,Cc1ccnc(NC(=S)N2CC3CN(c4ncc(C(F)(F)F)cc4Cl)CC3C2)c1 (centres unmarked) [Compound 227]
17,≤ 4.70,Cc1cc(C)nc(NC(=S)N2CCN(c3cnc4nccn4c3)CC2)c1 [Compound 160]
18,> 5.30,"Cc1cc(C)nc(NC(=S)N2CCCC(NC(=O)c3ccc(C(F)(F)F)cc3)C2)c1 (centres unmarked) [Compound 264, N-(1-((4,6-dimethylpyridin-2-yl)carbamothioyl)piperidin-3-yl)-4-(trifluoromethyl)benzamide]"
19,5.00 to 5.30,Cc1cc(C)nc(NC(=S)N2CCN(c3ccc(F)c(Cl)c3)CC2)c1 [Compound 215]
20,> 5.30,Cc1cc(C)nc(NC(=S)N2CCN(Cc3ccc(C(F)(F)F)cc3)[C@H](C)C2)c1 [Compound 298]
21,4.70 to 5.00,Cc1cc(C)nc(NC(=S)N2CCN(Cc3cccc(F)c3)CC2)c1 [Compound 277]
22,4.70 to 5.00,Cc1cc(C)nc(NC(=S)N2CCN(Cc3ccc(F)cc3)CC2)c1 [Compound 279]
